The source of these data is publication PMC3401907, “Cellular Uptakes, Biostabilities and Anti-miR-210 Activities of Chiral Arginine-PNAs in Leukaemic K562 Cells” (Chembiochem, 2012).

Some results are limits rather than exact numbers.

The test system of one data set is γ-globin gene expression. As to the kind of experiment: γ-globin gene expression by RT-qPCR. It is filed as cell-based, human. To be noted: mithramycin-treated (15 nM) K562 cells, PNA 2 μM single administration, 72 h, n=3. The method, then: The strong inhibition of miR-210 by PNA2 and PNA4 might thus result in appreciable reduction of γ-globin gene expression.
Figure 6 A) Effects of pept-1, PNA1, PNA2 and PNA4 molecules (each 2 μM) on γ-globin content in K562 cell cultures for 72 h with MTH (15 nM). Data are reported as arbitrary units relative to cells treated with pept-1 and MTH (average±SD, n=3, *: p<0.05, **: p<0.01). B), C) Effects of treatment (72 h) with pept-1, PNA1, PNA2 and PNA4 molecules on K562 cells induced to erythroid differentiation by MTH (15 nM): B) summary of three independent experiments, C) a representative experiment showing staining of the cells with benzidine.
The nucleotide sequences used for real-time qPCR analysis of γ-globin mRNAs were γ-globin forward primer (5′-TGGCAA GAAGGT GCTGAC TTC-3′), γ-globin reverse primer (5′-TCACTC AGCTGG GCAAAG G-3′) and γ-globin probe (5′-FAM-TGGGAG ATGCCA TAAAGC ACCTGG-TAMRA-3′).[25] The relative expression was calculated by the comparative cycle threshold method with endogenous control human 18S rRNA as reference genes.[25]
(Quantitative PCR measures a nucleic acid by following its amplification.)

The subject of data set [1] is miR-210. The settings on record: cited from earlier work; for anti-miR activity: K562 cells, previously demonstrated. The text has this:
(§1) The first step necessary to achieve anti-miR activity in cells is effective cellular uptake.

Data set [2] relates to K562 cells. To be noted: cited from earlier work. The method, then:
In order to determine the distributions of PNAs within target cells, analysis was performed with a fluorescence microscope. […] Low uptake was also found by fluorescence microscopy with PNA1.[25]

In data set [3] the test system is miR-210. As to the kind of experiment: miR-210 content by RT-qPCR analysis. The settings on record: K562 cells, 24 h; for inhibition of miR-210 bioavailability (miR-210 content): PNA 2 μM, Figure 5 A and B, relative to pept-1; for miR-210 inhibition upon treatment with mithramycin: PNA 2 μM with MTH 15 nM, relative to pept-1 and MTH. In kind it is cell-based, human. The method, then:
K562 cells were treated with 15 nM mithramycin in the presence of a PNA (2 μM), and after 24 h RNA was isolated and miR-210 was assayed by RT-qPCR analysis. This type of test has been used to evaluate miR content in many studies because it allows the free-miR content to be evaluated. […] Figure 5 A and B reports the obtained data, showing that inhibition of miR bioavailability was induced both with the modified PNA and with the peptide-conjugated one, whereas in the case of PNA1 it was unchanged. […] This might be related to inhibition of pre-miR maturation or to unavailability of the miR to the qRT-PCR analysis due to strong complexation with the PNA. In either case the bioavailability of the miR for targeting other genes should be reduced.
Transfection procedures: Anti-miR-210 PNAs were directly added to the cellular medium to reach the indicated final concentrations. K562 cells were cultured in 24-well plates starting from the initial density of 30 000 cells per mL. MTH was administrated together with anti-miR PNAs.
RNA extraction: Cells were isolated by centrifugation at 1500 rpm for 10 min at 4 °C, washed in PBS and lysed in Tri-reagent (Sigma–Aldrich) according to the manufacturer's instructions. The isolated RNA was washed once with cold ethanol (75 %), dried and dissolved in ultrapure nuclease-free water.
Real-time quantitative PCR: For microRNA quantification with real-time RT-PCR reagents, the primers and probes were obtained from Applied Biosystems. Reverse transcriptase (RT) reactions were performed with a TaqMan MicroRNA Reverse Transcription Kit (Applied Biosystems) for hsa-miR-210, hsa-miR-10a, hsa-miR-93, hsa-miR-99b, hsa-miR-126, hsa-miR-149, hsa-miR-424, hsa-miR-483-5p, hsa-miR-625, hsa-let-7c and the iQTM5 real-time PCR System Instrument (Bio-Rad). Relative expression was calculated by the comparative cycle threshold method and U6 microRNA was used as reference gene to normalise all RNA samples, because it is constant in the assayed samples by miR-profiling and quantitative RT-PCR analysis as previously reported.[25]

Data set [4] relates to DNA2 (mismatched DNA, G→T). As to the kind of experiment: Melting temperature (Tm) of PNA:DNA duplexes, single-mismatch DNA. In kind it is binding. To be noted: for Tm, DNA2 in urea (5 M): single mismatch, UV absorbance at 260 nm, PBS buffer pH 7 with urea 5 M, strand concentration 5 μM. The source says: (§2) Sequence selectivity is a very important issue in view of the use of PNAs in cellular systems, because partial hybridisation might occur with other unrelated miRNAs or, most importantly, with mRNA targets. We analysed the sequence selectivities of our PNAs with stricter models (DNA2 and RNA2) involving single base mismatches (G→T or G→U) located in the middle of the target sequences. In each case the sequence selectivity was confirmed by significant lowering of the melting temperature. The ranges of ΔTm due to the presence of these single mismatches were 8–21 °C for DNA, with the maximum drop in the case of PNA4 and the minimum observed in that of PNA6. For the latter it should be considered that the mismatch was facing the last chiral monomer, preventing the cooperative effect observed in the case of 2D-modifed highly constrained PNA.[22]
(§3) Measurements of Tm values: The Tm values were determined with a Lambda Bio 20 spectrophotometer and a Peltier PTP6 temperature programmer. Thermal denaturation profiles were measured by monitoring the absorbance at 260 nm from 18 to 90 °C with a heating rate of 1 °C min^−1 and recording every 0.1 °C. Measurement conditions: [PNA]=[DNA] or [RNA]=5 μM in PBS buffer [pH 7.0, NaCl (100 mM), NaH2PO4⋅H2O (10 mM), EDTA (0.1 mM)] with urea (5 M).

For data set [5], the system named is RNA2 (mismatched RNA, G→U). As to the kind of experiment: Melting temperature (Tm) of PNA:RNA duplexes, single-mismatch RNA. In kind it is binding. To be noted: UV absorbance at 260 nm, PBS buffer pH 7 with urea 5 M, strand concentration 5 μM.
Source text: as §2, §3

The subject of data set [6] is RNA1 (target region of miR-210). As to the kind of experiment: Melting temperature (Tm) of PNA:RNA duplexes, full-match RNA. It is filed as binding. The settings on record: UV absorbance at 260 nm, strand concentration 5 μM; for Tm, RNA1 in water: PBS buffer pH 7, no urea; for Tm, RNA1 in urea (5 M): PBS buffer pH 7 with urea 5 M. The method, then:
(§4) Measurements of Tm values: The Tm values were determined with a Lambda Bio 20 spectrophotometer and a Peltier PTP6 temperature programmer. Thermal denaturation profiles were measured by monitoring the absorbance at 260 nm from 18 to 90 °C with a heating rate of 1 °C min^−1 and recording every 0.1 °C. […]

The test system of data set [7] is DNA1 (full-match antiparallel DNA). As to the kind of experiment: Melting temperature (Tm) of PNA:DNA duplexes, full-match DNA. It is filed as binding. The settings on record: UV absorbance at 260 nm, strand concentration 5 μM; for Tm, DNA1 in urea (5 M): PBS buffer pH 7 (NaCl 100 mM, NaH2PO4 10 mM, EDTA 0.1 mM) with urea 5 M; for Tm, DNA1 in water: PBS buffer pH 7, no urea, 18 to 90 °C at 1 °C/min. The protocol:
as §4

In data set [8] the test system is K562 cells. The settings on record: previously demonstrated; cited from earlier work.
Source text: as §1

Data set [9] deals with K562 cells. As to the kind of experiment: Mithramycin-induced erythroid differentiation (benzidine-positive cells). The settings on record: MTH 15 nM, PNA 2 μM, benzidine-positive cells after 5 days of induction, three independent experiments. It is filed as cell-based, human. The protocol: In order to evaluate effects on mithramycin-induced cellular differentiation, K562 cells were treated with MTH in the presence of pept-1, PNA1, PNA2 and PNA4 (each 2 μM). The proportions of benzidine-positive cells were determined after 5 days of induction.
Human cell lines and culture conditions: Human leukaemia K562 cells were cultured under humidified CO2 (5 %)/air in RPMI 1640 medium (Sigma) supplemented with foetal bovine serum (FBS, 10 %, Analitical de Mori, Milan, Italy), penicillin (50 units mL^−1) and streptomycin (50 μg mL^−1).[26] Mithramycin (MTH) was from Sigma. Stock solutions of MTH (100 μM) were stored at −20 °C in the dark and diluted immediately before use. Treatment of K562 cells with MTH was carried out by addition of the appropriate drug concentrations at the beginning of the cultures (cells were seeded at 30 000 mL^−1). The medium was not changed during the induction period. To determine antiproliferative activity, cell growth was studied by determining the cell number per mL with a Z1 Coulter Counter (Coulter Electronics, Hialeah, FL, USA). Erythroid differentiated K562 cells containing haemoglobin were detected by specific reaction with a benzidine/hydrogen peroxide solution as reported elsewhere.[26] The final concentration of benzidine was 0.2 % in glacial acetic acid (5 M) and H2O2 (10 %).

For “H-CCGCTGTCACACGCACAG-NH2 [PNA1, unmodified achiral "naked" 18-mer PNA targeted against miR-210, reference compound]”, the “effect on γ-globin gene expression” value with γ-globin gene expression is given as “did not show appreciable effects”. Also, the anti-miR activity result in the data set on miR-210 [1] is recorded as “no activity”. In addition, the “uptake by fluorescence microscopy” value in the data set with K562 cells [2] is reported as “Low uptake”. Also, in the data set on miR-210 [3], the “inhibition of miR-210 bioavailability (miR-210 content)” value (shortened to “inhibition of miR-210 bioavailability”) was “unchanged”. Besides, the “Tm, DNA2 in urea (5 M)” value in [4] was 58 °C. For the same substance, the “Tm, RNA2 in urea (5 M)” value in [5] is 62 °C. For the same substance, in data set [6], the “Tm, RNA1 in water” value is 88 °C and the “Tm, RNA1 in urea (5 M)” value came out at 77 °C. Besides, in data set [7], the “Tm, DNA1 in urea (5 M)” value stood at 70 °C and the “Tm, DNA1 in water” value was 85 °C.

“H-R8CCGCTGTCACACGCACAG-NH2 [PNA2, 18-mer anti-miR-210 PNA conjugated with octaarginine (R8) peptide, reference compound]”: the “effect on γ-globin gene expression” value in the data set with γ-globin gene expression is given as “inhibited γ-globin gene expression”. In addition, in the data set on miR-210 [1], the anti-miR activity result is given as “pronounced anti-miR activity”. In addition, the “selectivity of miR-210 inhibition versus other miRs” value with miR-210 [1] (previously found) was “inhibit miR-210 selectively”. The “internalisation within K562 cells” value in the data set with K562 cells [8] was “efficiently internalised”. Also, in the data set on miR-210 [3], the “miR-210 inhibition upon treatment with mithramycin” value (“miR-210 inhibition upon treatment” below) was “best results” and the “inhibition of miR-210 bioavailability” value is “Stronger inhibition”. For the same substance, the “Tm, DNA2 in urea (5 M)” value in data set [4] is 68 °C. For the same substance, the “effect on MTH-induced erythroid differentiation” value with K562 cells [9] is listed as “able to inhibit erythroid differentiation”. In addition, the “Tm, RNA2 in urea (5 M)” value in data set [5] worked out at 73 °C. In addition, in data set [6], the “Tm, RNA1 in water” value is more than 90 °C and the “Tm, RNA1 in urea (5 M)” value came out at 88 °C. In [7], the “Tm, DNA1 in urea (5 M)” value worked out at 80 °C and the “Tm, DNA1 in water” value was more than 90 °C.

Regarding “H-CC2DARGGC2DARGTG2DARGTC2DARGAC2DARGAC2DARGGC2DARGAC2DARG AG-NH2 [PNA5, 2D Arg (C2) backbone-modified 18-mer PNA, model 1, alternating modified monomers]”, in the data set on miR-210 [3], the “miR-210 inhibition upon treatment” value is reported as “significant inhibition, but to lesser extents” and the “inhibition of miR-210 bioavailability” value was “less efficient inhibition”. The “Tm, DNA2 in urea (5 M)” value in data set [4] is 64 °C. Moreover, the “Tm, RNA2 in urea (5 M)” value in data set [5] stood at 62 °C. Also, in data set [6], the “Tm, RNA1 in water” value was more than 90 °C and the “Tm, RNA1 in urea (5 M)” value was found to be 78 °C. Moreover, in data set [7], the “Tm, DNA1 in urea (5 M)” value is 74 °C and the “Tm, DNA1 in water” value was more than 90 °C.

With “H-C2DArgC2DArgG2DArgC2DArgT2DArgG2DArgT2DArgC2DArgACACGCACAG-NH2 [PNA6, 2D Arg (C2) backbone-modified 18-mer PNA, model 2, stretch of consecutive modified monomers]”, in the data set on miR-210 [3], the “miR-210 inhibition upon treatment” value is on record as “significant inhibition, but to lesser extents” and the “inhibition of miR-210 bioavailability” value is given as “Stronger inhibition”. Besides, the “ΔTm due to single mismatch, DNA” value in data set [4] (DNA1 vs DNA2 (G→T in the middle of the target), urea 5 M) was 8 °C. Also, the “Tm, DNA2 in urea (5 M)” value in [4] is 69 °C. The “Tm, RNA2 in urea (5 M)” value in data set [5] came out at 65 °C. Further, in data set [6], the “Tm, RNA1 in water” value was more than 90 °C and the “Tm, RNA1 in urea (5 M)” value amounted to 75 °C. Further, in data set [7], the “Tm, DNA1 in urea (5 M)” value worked out at 77 °C and the “Tm, DNA1 in water” value is more than 90 °C.
